“Also recorded” adds a separate entry of the source.
Columns and labels:
[1] = tested on: anti-Strep A polyclonal antibodies; assay: Strep A lateral flow immunoassay (Veritor Strep A), sensitivity with sample containing Strep A antigen; format: binding; conditions: for sensitivity of the Strep A assay: agent mixed with sample containing Strep A antigen, FIG. 10
Experimental: FIGS. 1A-1C show the effect of N-propionyl-D-glucosamine on the sensitivity and false positivity of the Veritor™ Strep A assay when analyzing a test sample. The N-propionyl-D-glucosamine was added to the extraction reagent and mixed with porcine mucin, a surrogate of human mucin from saliva for specificity, or with Strep A extract for sensitivity.
(§1) 2-N-butanoyl-D-glucosamide, or Bis-(2-(D-2-deoxy-glucosaminyl))-PEG3-amide were tested for their ability to inhibit or block the binding of the anti-Strep A polyclonal antibodies in the Strep A immunoassay (Veritor™ Strep A assay). Porcine mucin samples were used as a surrogate of human saliva sample, and were tested with an immunoassay test strip for specificity. Using an immunoassay device for detection of Strep A, the effect of 2-N-butanoyl-D-glucosamide, or Bis-(2-(D-2-deoxy-glucosaminyl))-PEG3-amide on the performance of Strep A assay was evaluated using 4× concentration of mucin standard (˜2.5 mg/mL) and Test Standard 1. Either 2-N-butanoyl-D-glucosamide, or Bis-(2-(D-2-deoxy-glucosaminyl))-PEG3-amide was added directly to the sample. Different concentrations of 2-N-butanoyl-D-glucosamide, or Bis-(2-(D-2-deoxy-glucosaminyl))-PEG3-amide in an immunoassay were evaluated for inhibition of Strep A false positive signals.

[2] = tested on: anti-Strep A polyclonal antibodies; assay: Strep A lateral flow immunoassay (Veritor Strep A), false positive signal from porcine mucin samples; format: binding; conditions: for false positive signals from porcine mucin samples: agent added directly to the sample, 4x mucin standard (~2.5 mg/mL), FIGS. 5-6
Experimental: as §1, with “Either 2-N-butanoyl-D-glucosamide, or Bis-(2-(D-2-deoxy-glucosaminyl))-PEG3-amide was added directly to the sample.” left out
m-PEG4-glucosamine, m-PEG6-glucosamine, m-PEG10-glucosamine and m-PEG5000-glucosamine were tested for their ability to inhibit or block the binding of the anti-Strep A polyclonal antibodies in the Strep A immunoassay. […] Different concentrations of m-PEG4-glucosamine, m-PEG6-glucosamine, m-PEG10-glucosamine and m-PEG5000-glucosamine in an immunoassay were evaluated for inhibition of Strep A false positive signals.

[3] = tested on: Rabbit polyclonal antibodies for Group A Strep; conditions: previous studies, US 2013/0196337; cited from earlier work
[4] = tested on: anti-Strep A polyclonal antibodies; assay: Strep A detection assay, agent added to extraction solution (GAS 1+2) without mucin; format: binding; conditions: no mucin, FIG. 11
[5] = tested on: anti-Strep A polyclonal antibodies; assay: Strep A lateral flow immunoassay (Veritor Strep A), false positive signal from saliva samples; format: binding; conditions: saliva from asymptomatic patients; FIGS. 1-4
Experimental: Saliva samples were collected from four asymptomatic patients and tested with an immunoassay test strip for specificity. Previous studies have reported that samples obtained from the mouth tissues, saliva, cheek and tongue of healthy control patients show high false positive rates for Strep A when assayed via a lateral flow immunoassay. See US20130196337A1.
N-propionyl-D-glucosamine was tested for its ability to inhibit or block the binding of the anti-Strep A polyclonal antibodies in the Strep A immunoassay. Saliva samples from four asymptomatic patients were obtained for testing. Using an immunoassay device for detection of Strep A, the four saliva samples were each treated with the extraction reagents (such as the extraction reagents in a commercially available BD Veritor™ Strep A kit) in the presence of N-propionyl-D-glucosamine, which was dried on the conjugate pad during the spraying of liquid conjugate on the conjugate pad (labeling zone). Different concentrations of N-propionyl-D-glucosamine in an immunoassay were evaluated for inhibition of Strep A false positive signals.

[6] = agent mixed with porcine mucin sample, FIG. 10
[7] = agent added directly to the sample, Test Standard 1, FIGS. 5-6
[8] = high concentration in sample pad or conjugate pad dipping solution, FIG. 8
[9] = lower concentrations (zero to 12.5 mM tested) in conjugate pad dipping solution, FIG. 9

Question: Which “sensitivity of the Strep A assay” value [1] does the source give for m-PEG6-glucosamine here?
Answer: The value was “without significant impact”.

Question: What about the mucin cross-reaction [2, 6] of the same compound?
Answer: The mucin cross-reaction was “effective in eliminating”.

Question: For CC(=O)N[C@H]1C(O)O[C@H](CO)[C@@H](O)[C@@H]1O (stereo partly drawn) [N-acetyl-D-glucosamine], which assay sensitivity [3] is on record?
Answer: The assay sensitivity was “significant reduction”.

Question: And the “assay specificity (interference by salivary proteins)” value [3]?
Answer: The value was “can improve assay specificity”.

Question: For “Bis-(2-(D-2-deoxy-glucosaminyl))-PEG3-amide”, which true sensitivity ([1]; added in sample, two lots of Strep A devices, FIG. 7) is on record?
Answer: Its true sensitivity is “slightly inhibited”.

Question: What about the “overall sensitivity of the Veritor Strep A assay” value (shortened to “overall sensitivity”) [1, 7] of the same compound?
Answer: Its value is “did not significantly reduce”.

Question: What about the true signal [1, 8] of the same compound?
Answer: The true signal was “inhibit”.

Question: And the true sensitivity [1, 9]?
Answer: Its true sensitivity is “without much impact”.

Question: What about the “mucin induced false positive signal” value ([2]; added in sample, two lots of Strep A devices that previously showed mucin cross-reaction, FIG. 7) of the same compound?
Answer: Its value is “significantly reducing”.

Question: And the false positive signal ([2]; added to conjugate pad dipping solution and/or sample pad dipping solution, FIG. 8)?
Answer: Its false positive signal is “significantly reduced”.

Question: What about the “false positive signals from porcine mucin samples” value [2] of the same compound?
Answer: Its value is “efficiently suppressed”.

Question: What about the “false positive signal caused by mucin” value [2, 8] of the same compound?
Answer: The value was “effectively eliminate”.

Question: What about the mucin cross-reaction [2, 9] of the same compound?
Answer: The mucin cross-reaction was “effectively eliminate”.

Question: What does the source list for m-PEG10-glucosamine?
Answer: sensitivity of the Strep A assay [1]: without significant impact; mucin cross-reaction [2, 6]: effective in eliminating

Question: With CCCC(=O)N[C@H]1C(O)O[C@H](CO)[C@@H](O)[C@@H]1O (stereo partly drawn) [2-N-butanoyl-D-glucosamide] as the compound, how does the “overall sensitivity” value [1, 7] read?
Answer: Its value is “did not significantly reduce”.

Question: What about the “false positive signals from porcine mucin samples” value [2] of the same compound?
Answer: The value was “efficiently suppressed”.

Question: With m-PEG4-glucosamine as the compound, how does the “sensitivity of the Strep A assay” value [1] read?
Answer: Its value is “without significant impact”.

Question: What about the mucin cross-reaction [2, 6] of the same compound?
Answer: Its mucin cross-reaction is “effective in eliminating”.

Question: With m-PEG5000-glucosamine as the compound, how does the “false positive signal when mucin is not present” value [4] read?
Answer: Its value is “no any false positive signal was observed”.

Question: What about the “false positive signal caused by mucin” value ([2]; agent added to sample, mucin present, FIG. 11) of the same compound?
Answer: Its value is “did not reduce the false positive signal caused by mucin, but instead increases the false positive signal; also recorded: does not reduce the false positive signal caused by mucin, but instead increases the false positive signal”.

Question: With CCC(=O)N[C@H]1C(O)O[C@H](CO)[C@@H](O)[C@@H]1O (stereo partly drawn) [N-propionyl-D-glucosamine] as the compound, how does the “overall sensitivity” value ([1]; FIG. 1 and FIG. 3) read?
Answer: The value was “did not reduce”.

Question: And the “false positive signals from saliva specimens” value [5]?
Answer: Its value is “efficiently suppressed”.

From patent US12066439B2, “Methods for enhancing specificity and sensitivity of group a Streptococcus immunoassay” (Becton, Dickinson and Company, priority 2021, dated 2024)
